Measured values taken from patent US20250313563A1, “GLYCOGEN SYNTHASE KINASE 3 INHIBITORS AND USES THEREOF” (The Broad Institute, Inc., priority 2022, published 2025).
Like-named read-outs stand apart in the source and are kept apart here.

Columns and labels:
[1] = biological target: GSK3α (GST-full length GSK3α) (Homo sapiens (Human), UniProt P49840); experiment: GSK3α TR-FRET kinase assay; assay type: biochemical
How it was run: (§1)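 Compound was preincubated 30 min with 1 nM GST-GSK3 enzyme. Reaction ran 100 min at ambient temperature in Tris pH 7.5/MgCl2 with 200 nM biotinylated pS645-glycogen synthase 631-650 peptide and ATP (4 μM GSK3α, 2 μM GSK3b, or 1 mM). The EDTA-stopped reaction was read by TR-FRET (Tb-anti-pSer641/streptavidin-d2), and IC50s were fitted.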

[2] = biological target: GSK3b (GST-full length GSK3b) (Homo sapiens (Human), UniProt P49841); experiment: GSK3b TR-FRET kinase assay; assay type: biochemical
GSK3b (GST-full length GSK3b), sequence (P49841 whole entry): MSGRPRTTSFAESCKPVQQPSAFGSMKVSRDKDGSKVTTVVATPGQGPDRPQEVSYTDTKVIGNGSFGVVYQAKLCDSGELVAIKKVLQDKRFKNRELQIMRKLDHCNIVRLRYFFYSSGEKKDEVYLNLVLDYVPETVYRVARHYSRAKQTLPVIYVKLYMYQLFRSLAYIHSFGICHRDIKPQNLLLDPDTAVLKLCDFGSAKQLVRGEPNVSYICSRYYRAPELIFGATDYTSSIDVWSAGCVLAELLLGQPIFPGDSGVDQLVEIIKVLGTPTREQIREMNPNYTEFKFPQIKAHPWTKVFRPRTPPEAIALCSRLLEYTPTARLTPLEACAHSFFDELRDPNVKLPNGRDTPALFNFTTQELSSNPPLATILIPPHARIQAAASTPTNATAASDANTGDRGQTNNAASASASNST
How it was run: as §1

[3] = 1 nM GSK3α, 4 μM ATP, 30 minute preincubation, read-out: GSK3-A TR-FRET BIOCHEMICAL (TR-FRET), IC50
[4] = 1 nM GSK3b, 2 μM ATP, 30 minute preincubation, read-out: GSK3-B TR-FRET BIOCHEMICAL (TR-FRET), IC50
[5] = read-out: GSK3-A (TR-FRET 1 mM ATP), GMean, IC50, 1 mM ATP, geometric mean
[6] = read-out: GSK3-B (TR-FRET 1 mM ATP), GMean, IC50, 1 mM ATP, geometric mean
[7] = 1 nM GSK3α, 4 μM ATP, 30 minute preincubation, Table 16, read-out: GSK3-A TR-FRET BIOCHEMICAL (TR-FRET)
[8] = 1 nM GSK3b, 2 μM ATP, 30 minute preincubation, Table 16, read-out: GSK3-B TR-FRET BIOCHEMICAL (TR-FRET)
[9] = 1 nM GSK3α, 4 μM ATP, 30 minute preincubation, geometric mean, read-out: GSK3-A TR-FRET BIOCHEMICAL (TR-FRET), GMean, IC50
[10] = 1 nM GSK3b, 2 μM ATP, 30 minute preincubation, geometric mean, read-out: GSK3-B TR-FRET BIOCHEMICAL (TR-FRET), GMean, IC50

GSK3α (GST-full length GSK3α), sequence (P49840 whole entry): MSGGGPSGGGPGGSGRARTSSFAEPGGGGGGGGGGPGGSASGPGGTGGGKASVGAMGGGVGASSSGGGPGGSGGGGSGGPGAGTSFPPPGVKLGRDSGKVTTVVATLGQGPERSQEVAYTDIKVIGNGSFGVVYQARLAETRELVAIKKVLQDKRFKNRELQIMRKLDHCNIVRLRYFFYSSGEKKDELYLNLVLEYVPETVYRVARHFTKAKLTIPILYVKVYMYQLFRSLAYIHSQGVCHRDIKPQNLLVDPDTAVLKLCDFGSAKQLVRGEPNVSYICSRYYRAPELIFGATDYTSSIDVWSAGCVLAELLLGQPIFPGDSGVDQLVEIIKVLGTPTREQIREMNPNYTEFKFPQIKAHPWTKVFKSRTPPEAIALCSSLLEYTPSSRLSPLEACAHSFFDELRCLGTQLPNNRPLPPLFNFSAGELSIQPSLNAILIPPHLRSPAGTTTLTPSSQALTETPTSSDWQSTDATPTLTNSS

Row | SMILES | IC50 [1, 5] | IC50 [2, 6] | IC50 [1, 7] | IC50 [2, 8] | IC50 [1, 9] | IC50 [2, 10] | also measured
1 | CC(C)(C)CC(=O)N1CC2(C1)CC1(CO2)C2=C(CC(C)(C)CC2=O)Nc2n[nH]cc21 (stereo not shown) [Compound 947301] | – | – | – | – | – | – | IC50 [1, 3]: 100 to 1000 nM; IC50 [2, 4]: 1000 to 5000 nM
2 | CC(C)CC(=O)N1CC2(C1)CC1(CO2)C2=C(CC(C)(C)CC2=O)Nc2n[nH]cc21 (stereo not shown) [Compound 947302] | – | – | – | – | – | – | IC50 [1, 3]: ≤ 100 nM; IC50 [2, 4]: ≤ 100 nM
3 | CC1(C)CC(=O)C2=C(C1)Nc1n[nH]cc1C21COC2(CN(C(=O)C(C)(C)C)C2)C1 (stereo not shown) [Compound 947303] | – | – | – | – | – | – | IC50 [1, 3]: ≤ 100 nM; IC50 [2, 4]: ≤ 100 nM
4 | CC(C)C(=O)N1CC2(C1)CC1(CO2)C2=C(CC(C)(C)CC2=O)Nc2n[nH]cc21 (stereo not shown) [Compound 947304] | – | – | – | – | – | – | IC50 [1, 3]: ≤ 100 nM; IC50 [2, 4]: 100 to 1000 nM
5 | CC1(C)CC(=O)C2=C(C1)Nc1n[nH]cc1C21COC2(CN(C(=O)CC3CCCCC3)C2)C1 (stereo not shown) [Compound 947305] | – | – | – | – | – | – | IC50 [1, 3]: ≤ 100 nM; IC50 [2, 4]: ≤ 100 nM
6 | CC1(C)CC(=O)C2=C(C1)Nc1n[nH]cc1C21COC2(CN(C(=O)Cc3ccccc3)C2)C1 (stereo not shown) [Compound 947306] | ≤ 100 nM | ≤ 100 nM | – | – | – | – | IC50 [1, 3]: ≤ 100 nM; IC50 [2, 4]: ≤ 100 nM
7 | CC1(C)CC(=O)C2=C(C1)Nc1n[nH]cc1C21COC2(CN(C(=O)C3(C)CCCC3)C2)C1 (stereo not shown) [Compound 947307] | – | – | – | – | – | – | IC50 [1, 3]: ≤ 100 nM; IC50 [2, 4]: ≤ 100 nM
8 | CC1(C)CC(=O)C2=C(C1)Nc1n[nH]cc1C21COC2(CN(C(=O)C3CCCCCC3)C2)C1 (stereo not shown) [Compound 947308] | – | – | – | – | – | – | IC50 [1, 3]: ≤ 100 nM; IC50 [2, 4]: 100 to 1000 nM
9 | CC[C@]1(c2cccc(-c3ccncc3C)c2)C2=C(CC(C)(C)CC2=O)Nc2n[nH]c(C(F)(F)F)c21 [Compound 947324] | ≤ 100 nM | ≤ 100 nM | ≤ 100 nM | ≤ 100 nM | – | – | –
10 | CC[C@]1(c2cccc(-c3ccncc3F)c2)C2=C(CC(C)(C)CC2=O)Nc2n[nH]c(C(F)(F)F)c21 [Compound 947326] | ≤ 100 nM | ≤ 100 nM | ≤ 100 nM | ≤ 100 nM | – | – | –
11 | CCC1(c2cccc(-c3ccnc(C)c3C)c2)C2=C(CC(C)(C)CC2=O)Nc2n[nH]c(C(F)(F)F)c21 (stereo not shown) [Compound 947328] | – | – | 100 to 1000 nM | 100 to 1000 nM | – | – | –
12 | CCC1(c2cccc(-c3ccnc(C)c3C)c2)C2=C(CC(C)(C)CC2=O)Nc2n[nH]c(C(F)(F)F)c21 (stereo not shown) [Compound 947329] | ≤ 100 nM | ≤ 100 nM | ≤ 100 nM | ≤ 100 nM | – | – | –
13 | CCC1(c2cccc(C(F)(F)F)c2)C2=C(CCN(c3ccc(OC)cc3)C2=O)Nc2n[nH]cc21 (stereo not shown) [Compound 947332] | – | – | – | – | – | – | IC50 [1, 3]: ≤ 100 nM; IC50 [2, 4]: 100 to 1000 nM
14 | CCN(c1cccc(C2(CC)C3=C(CC(C)(C)CC3=O)Nc3n[nH]cc32)c1)c1ncccn1 (stereo not shown) [Compound 947333] | ≤ 100 nM | 100 to 1000 nM | ≤ 100 nM | ≤ 100 nM | – | – | –
15 | CCN(c1cccc([C@@]2(CC)C3=C(CC(C)(C)CC3=O)Nc3n[nH]cc32)c1)c1ncccn1 [Compound 947334] | – | – | 100 to 1000 nM | 1000 to 5000 nM | – | – | –
16 | CCC1(c2cccc(-c3cc(C)ncc3C)c2)C2=C(CC(C)(C)CC2=O)Nc2n[nH]c(C(F)(F)F)c21 (stereo not shown) [Compound 947363] | ≤ 100 nM | 100 to 1000 nM | ≤ 100 nM | ≤ 100 nM | – | – | –
17 | CCC1(c2cccc(-c3ccnn3C)c2)C2=C(CC(C)(C)CC2=O)Nc2n[nH]c(C(F)(F)F)c21 (stereo not shown) [Compound 947365] | – | – | 100 to 1000 nM | 1000 to 5000 nM | – | – | –
18 | CC[C@@]1(c2cccc(-c3ccnn3C)c2)C2=C(CC(C)(C)CC2=O)Nc2n[nH]c(C(F)(F)F)c21 [Compound 947372] | ≤ 100 nM | ≤ 100 nM | ≤ 100 nM | ≤ 100 nM | – | – | –
19 | CC[C@]1(c2cccc(-c3cc(C)nn3C)c2)C2=C(CC(C)(C)CC2=O)Nc2n[nH]c(C(F)(F)F)c21 [Compound 947383] | – | – | 1000 to 5000 nM | > 5000 nM | – | – | –
20 | CCC1(c2cccc(S(C)(=O)=O)c2)C2=C(CC(C)(C)NC2=O)Nc2n[nH]c(C)c21 (stereo not shown) [Compound 947395] | 100 to 1000 nM | 100 to 1000 nM | – | – | – | – | IC50 [1, 3]: ≤ 100 nM; IC50 [2, 4]: ≤ 100 nM
21 | CCC1(c2cccc(-c3cnnn3C(C)C)c2)C2=C(CC(C)(C)CC2=O)Nc2n[nH]cc21 (stereo not shown) [Compound 947397] | – | – | ≤ 100 nM | ≤ 100 nM | – | – | –
22 | CCC1(c2cccc(-c3cnnn3C)c2)C2=C(CC(C)(C)CC2=O)Nc2n[nH]cc21 (stereo not shown) [Compound 947398] | – | – | ≤ 100 nM | ≤ 100 nM | – | – | –
23 | CCC1(c2cccc(-c3ccnc(C)c3C)c2)C2=C(CC(C)(C)NC2=O)Nc2n[nH]c(C)c21 (stereo not shown) [Compound 947399] | – | – | – | – | 100 to 1000 nM | 1000 to 5000 nM | –
24 | CCC1(c2cccc(Oc3ncccn3)c2)C2=C(CC(C)(C)CC2=O)Nc2n[nH]cc21 (stereo not shown) [Compound 947400] | – | – | ≤ 100 nM | ≤ 100 nM | – | – | –
25 | CCC1(c2cccc(-c3ccnc(C)c3F)c2)C2=C(CC(C)(C)NC2=O)Nc2n[nH]c(C)c21 (stereo not shown) [Compound 947402] | – | – | – | – | ≤ 100 nM | 100 to 1000 nM | –
26 | CCC1(c2cccc(-c3cnn(C)c3C)c2)C2=C(CC(C)(C)NC2=O)Nc2n[nH]c(C(F)(F)F)c21 (stereo not shown) [Compound 947403] | ≤ 100 nM | 100 to 1000 nM | – | – | ≤ 100 nM | ≤ 100 nM | –

Second part, led by results:

Row | IC50 [1, 5] | IC50 [2, 6] | IC50 [1, 7] | IC50 [2, 8] | IC50 [1, 9] | IC50 [2, 10] | SMILES | also measured
27 | ≤ 100 nM | 100 to 1000 nM | – | – | ≤ 100 nM | ≤ 100 nM | CCC1(c2cccc(-c3ccncc3C)c2)C2=C(CC(C)(C)NC2=O)Nc2n[nH]c(C(F)(F)F)c21 (stereo not shown) [Compound 947404] | –
28 | ≤ 100 nM | 100 to 1000 nM | – | – | ≤ 100 nM | ≤ 100 nM | CCC1(c2cccc(-c3cnn(C)c3)c2)C2=C(CC(C)(C)NC2=O)Nc2n[nH]c(C(F)(F)F)c21 (stereo not shown) [Compound 947405] | –
29 | 100 to 1000 nM | > 5000 nM | ≤ 100 nM | 100 to 1000 nM | – | – | CC[C@]1(c2cccc(-c3ccnc(C)c3)c2)C2=C(C[C@]3(CCOC3)NC2=O)Nc2n[nH]cc21 [Compound 947406] | –
30 | – | – | ≤ 100 nM | 1000 to 5000 nM | – | – | CCC1(c2cccc(-c3ccnc(C)c3)c2)C2=C(CC3(CCOC3)CC2=O)Nc2n[nH]cc21 (stereo not shown) [Compound 947407] | –
31 | 100 to 1000 nM | 1000 to 5000 nM | – | – | ≤ 100 nM | ≤ 100 nM | CC[C@]1(c2cccc(-c3c(C)nn(C)c3C)c2)C2=C(CC(C)(C)NC2=O)Nc2n[nH]cc21 [Compound 947408] | –
32 | – | – | – | – | 1000 to 5000 nM | > 5000 nM | CC[C@]1(c2cccc(-c3ccncc3C)c2)C2=C(CC(C)(C)NC2=O)Nc2n[nH]c(C)c21 [Compound 947409] | –
33 | 100 to 1000 nM | > 5000 nM | – | – | ≤ 100 nM | 100 to 1000 nM | CC[C@]1(c2cccc(-c3cnn4c3CCCC4)c2)C2=C(CC(C)(C)NC2=O)Nc2n[nH]cc21 [Compound 947410] | –
34 | – | – | 1000 to 5000 nM | > 5000 nM | – | – | CCC1(c2cccc(-c3ccnc(C)c3)c2)C2=C(CC3(CCOC3)CC2=O)Nc2n[nH]cc21 (stereo not shown) [Compound 947412] | –
35 | – | – | – | – | 1000 to 5000 nM | > 5000 nM | CC[C@@]1(c2cccc(-c3c(C)nn(C)c3C)c2)C2=C(CC(C)(C)NC2=O)Nc2n[nH]cc21 [Compound 947413] | –
36 | 100 to 1000 nM | 1000 to 5000 nM | – | – | ≤ 100 nM | ≤ 100 nM | CC[C@@]1(c2cccc(-c3ccncc3C)c2)C2=C(CC(C)(C)NC2=O)Nc2n[nH]c(C)c21 [Compound 947414] | –
37 | – | – | – | – | 1000 to 5000 nM | > 5000 nM | CCC1(c2cccc(-c3cnn4c3CCCC4)c2)C2=C(CC(C)(C)NC2=O)Nc2n[nH]cc21 (stereo not shown) [Compound 947415] | –
38 | – | – | – | – | > 5000 nM | > 5000 nM | CCC1(c2cccc(C(F)(F)F)c2)C2=C(CCN(c3cccnc3)C2=O)Nc2n[nH]cc21 (stereo not shown) [Compound 947433] | –
